Measured values published in US6465396B1, “Method to promote growth of a plant” (Nara Institute of Science and Technology, priority 1999, dated 2002).
Where two headings read alike, the source gives them in different places.

Experiments:
[1] = tested on: rice (Oryza sativa L.: Hinihikari); assay: Photo-oxidation damage, photosynthetic ability as oxygen generation rate, rice leaves; conditions: for residual photosynthetic ability (oxygen generation rate): when control sample was reduced to 30%, concentration not given, FIG. 15
kidney bean = conditions: FIG. 19
Experimental: The seeds of kidney bean (Phaseolus vulgaris L.: tsurunashiinngenn) were used for the experiments. The plants were seeded under a vermiculight. They were grown under the light intensity of 150 μmol quanta/m^2·s. Normal leaves derived from the plant bodies of 2 to 4 weeks old were used for the experiments.
In the case of rice plant, a portion containing petiole was excised from the plant bodies and it was immersed into 10 ml of sample compound in a tube. It was incubated for 30 min at 25° C. under 150 μmol quanta/m^2·s of illumination. […] After the administration, water in the leaf disk was excluded, the leaf was set in the chamber and the ability of photosynthesis was measured on the leaf. […]
After measurement of rate of photosynthesis as described above, the air without carbon dioxide was introduced into the chamber and the light was illuminated at the intensity of 1600 μmol quanta/m^2·s for a certain period. […] The rate of oxygen generation was measured after this treatment and inhibition of photosynthetic ability caused by photo-oxidation damage was thus evaluated.
To estimate sanity of photo-system, the fluorescence originated from chlorophyl, the center of photo-system, was measured on rice under the same condition described above after photo-oxidation damage. […] The fluorescence was measured before and after photo-oxidation damage to estimate Fv/Fm value.

tabacco = conditions: FIG. 18
Experimental: The seeds of tabacco (Nicotina tabacum L.: SRI) were used for the experiment. The plants were seeded under a vermiculight. They were grown under the light intensity of 150 μmol quanta/m^2·s. Normal leaves derived from the plant bodies of 4 to 6 weeks old were used for the experiments.
In the case of rice plant, a portion containing petiole was excised from the plant bodies and it was immersed into 10 ml of sample compound in a tube. It was incubated for 30 min at 25° C. under 150 μmol quanta/m^2·s of illumination. After administration of sample compounds, the leaves of rice were sliced and put in a chamber with diameter of 35 mm and the rate of oxygen generation (μmol O2/m^2·s) was estimated. In the case of other plants, a leaf disk with diameter of 35 mm was prepared prior to the experiment. […] After the administration, water in the leaf disk was excluded, the leaf was set in the chamber and the ability of photosynthesis was measured on the leaf. […]
After measurement of rate of photosynthesis as described above, the air without carbon dioxide was introduced into the chamber and the light was illuminated at the intensity of 1600 μmol quanta/m^2·s for a certain period. […] The rate of oxygen generation was measured after this treatment and inhibition of photosynthetic ability caused by photo-oxidation damage was thus evaluated. […]

[2] = tested on: formate dehydrogenase (FDH); conditions: root of rice cultivated in the presence of 1.4 mM formic acid, 25° C., two weeks; FIG. 12
Experimental: Then the alteration of FDH activity by administration of formic acid was investigated. The rice plant bodies were cultivated in the presence or absence of 1.4 mM formic acid at 25° C. for two weeks. The aerial part and the ground part (root) was separated and the crude enzyme solution was prepared from each part. The enzyme solution was prepared to 1.5 mg/ml and FDH activities of the samples were measured. The FDH activity was measured using [^13C] formic acid as the substrate and detecting [^13C] CO2 in the supernatant by GC-MS.

FDH gene = conditions: ground part (root) of rice; pretreatment with formic acid administration; FIG. 14
Experimental: In the case of utilization for northern analysis, total RNA was isolated from leaf and root of rice cultivated under condition described above, using Isogen RNA purification kit (Nippon gene).
RNA was prepared from the aerial part and the ground part (root) respectively and the northern analysis was performed on these samples. Forty μg of the total RNA was applied to each lane and electrophoresis was performed on 1% agarose gel (containing 2.2 M formaldehyde). The gel was charged for the capillary blotting using Hybond N+membrane (Amersham) using 20×SSC. The hybridization was performed according to instruction of AlkPhosDIREST (Amersham) and detection was performed using CDP-Star (Amersham). The FDH cDNA (open reading frame:1130 bp), amplified by PCR, was used as probe DNA.

rice plant bodies = assay: Plant growth test, rice; assay type: in vivo, Oryza sativa L.; conditions: 2 weeks cultivation
Text: The effect of formate salts addition observed on plant growth was investigated. The seeds of rice were sterilized and seeded into a glass tube (130 mm×40 mm I.D) containing medium described below. The contents of the medium are ½MS salt, 0.1% gellan gum and various concentrations of sodium formate. The pH was adjusted to 6.0 by addition of 1N sodium hydroxide and the medium was sterilized by autoclave treatment. […] After cultivation for 2 weeks under this condition, the extent of growth was estimated by measurement of length of the aerial part and wet weight of plant bodies.

[3] = tested on: kidney bean (Phaseolus vulgaris L.: tsurunashiinngenn); conditions: 2 mM, FIG. 5
Experimental: (§1) The plants were seeded under a vermiculight.
(§2) Generation of oxygen was measured by clark type oxygen electrode. The cuvette (LD2/2 type), the oxygen electrode controller (CB 1-D3 type) and the light source (LS-2, Hansatec corp.) were adopted as components of the measuring device. The chamber of cuvette contained in this device is composed of combination of a chamber, capable of hermetically sealing with diameter of 35 mm and volume of 5 ml, and an oxygen electrode. As upper side of the chamber is transparent, arbitrary intensity of light can be illuminated. The plant body described above, after administration of formic acid, was enclosed in the chamber and sealed hermetically. It was illuminated using a halogen lamp as the light source, and the rate of oxygen generation was measured under the air containing 5% of carbon dioxide. Unless specified otherwise, the measurement was performed under the light adjusted to a intensity of 253 μmol quanta/m^2·s using a red filter or an attenuation filter. The oxygen generation was calculated by dividing the obtained value with the surface area of the leaf.

[4] = tested on: tabacco (Nicotina tabacum L.: SRI); conditions: 2 mM, FIG. 6
Experimental: as §1, §2

## O=C[O-].[Na+] [formate salt]
[1]; formate salt, strong light illumination (inclination not altered under weak light), FIG. 3
  photosynthetic ability under various light intensities after photo-oxidation damage: inhibited damage on photosynthetic ability under strong light illumination
[1]
  residual photosynthetic ability (oxygen generation rate): 60%

## CO [methanol]
Kidney bean; 100 mM
  damage on photo-system by chlorophyl fluorescence analysis: significantly alleviated
rice; 25 mM or 50 mM, FIG. 17
  reduction of Fv/Fm value caused by photo-oxidation damage: significant inhibition
tabacco; 100 mM
  damage on photo-system by chlorophyl fluorescence analysis: significantly alleviated
[1]; methanol, especially under strong light illumination, FIG. 16
  photosynthetic ability under various light intensities after photo-oxidation damage: avoided photo-oxidation damage
[1]
  residual photosynthetic ability (oxygen generation rate): 70%

## O=CO [formic acid]
[2]
  FDH activity compared to control group: about twice
Kidney bean; 2 mM
  damage on photo-system by chlorophyl fluorescence analysis: potency
tabacco; 2 mM
  damage on photo-system by chlorophyl fluorescence analysis: potency
FDH gene
  expression of FDH gene: significant increase

## O=CO [formate]
rice; 2 mM, FIG. 7
  damage on photo-system (Fv/Fm) caused by photo-oxidation damage: avoided

## O=C[O-].[Na+] [sodium formate]
Rice plant bodies; 125 ppm in medium, FIG. 8
  growth promotion, wet weight of plant bodies: 25%
Rice plant bodies; 125 ppm in medium, FIG. 9
  growth promotion, length of aerial part: 25%
Rice plant bodies; 1000 ppm in medium
  growth promotion effect: disappeared

## O=C[O-].[K+] [potassium formate, Potassium formate]
[3]
  effect on oxygen generation rate reduction caused by photo-oxidation damage: exhibited inhibition
[4]
  effect on oxygen generation rate reduction caused by photo-oxidation damage: exhibited inhibition
[1]; 2 mM or 4 mM, FIG. 4
  dose-dependency of protection on photo-oxidation damage: optimum protection
[1]; 2 mM, 8 min strong light illumination in the absence of carbon dioxide, control reduced to about 30%, FIG. 1
  oxygen generation activity retained after photo-oxidation damage: 90%
[1]; 2 mM, photo-oxidation damage treatment 2 min, 4 min, FIG. 2
  time course of damage on photosynthetic ability: the damage on photosynthetic ability was inhibited
